The results in this text go back to patent publication US12161114B2, “Overpowered ABA receptor agonists” (The Regents of the University of California, priority 2018, dated 2024).

Assay [1] concerns wild type Columbia Arabidopsis thaliana seeds. Put plainly: Arabidopsis seed germination assay. The assay is classed as in vivo. The protocol: Prior to selecting a scaffold for optimization we conducted Arabidopsis seed germination assays to establish if the hits obtained are activity in vivo. Germination experiments were performed with surface sterilized wild type Columbia Arabidopsis thaliana seeds and abi1C (the abi1-1 allele isolated in the Columbia ecotype) plated onto 0.7% agar medium containing 1/2-x MS salts, 0.5% sucrose and differing concentrations of the test compounds. After 4d of stratification at 4° C., the plates were transferred to a growth chamber under continuous illumination and evaluated after 4 days.
To establish if the in vitro potency of Opa translates into improved activity in vivo, we measured the effects of ABA, QB, AMF4, Opa and 2e on Arabidopsis seed germination at a range of concentrations to infer quantitative measures or potency. Methods similar to that described in Example 3 are followed. The percentage of germinated seeds were recorded for each chemical treatment for each concentration in quadruplicate. EC50 values denote the concentrations at which 50% of seeds have been inhibited.

In assay [2] the test system is Arabidopsis plants. Put plainly: thermal imaging of leaf temperature (anti-transpirant activity), Arabidopsis. The assay is classed as in vivo, Arabidopsis thaliana. The note with it: 50 μM spray, 24 hr after treatment. The protocol:
Three to 4 week old Arabidopsis plants were used for thermal imaging, 4 evenly spaced seedlings were included per 4-inch pot, each pot treated as a single measurement. Chemical treatments were as follow: compounds were dissolved in 0.5% DMSO and 0.02% Silwet-77 (Lehle seeds) at 50 μM and rosette leaves treated with 5 mL applied as an aerosol. Thermal images were collected using FLIR T62101 camera 24 hr after treatment. Seedlings positions were randomized to control for microenvironmental differences in the growth room. Treated plants were compared to mock treated plants (sprayed with 5 mL blank 0.5% DMSO/0.02% Silwet-77 solution). Average rosette leaf temperatures were obtained by averaging the temperatures measured from between 10-15˜1 cm^2 area spots from the 4 plants in each replicate pot, using FLIR software. Statistical analyses of the treatment effects were conducted in GraphPad using a one way ANOVA between control and treatment samples and a Dunnett test was used to obtain multiplicity adjusted p values, which are reported in FIG. 15.

Assay [3] deals with T1, PYR1 (Arabidopsis thaliana, UniProt O49686).
T1 construct: made in house
T1 sequence (O49686 1-191): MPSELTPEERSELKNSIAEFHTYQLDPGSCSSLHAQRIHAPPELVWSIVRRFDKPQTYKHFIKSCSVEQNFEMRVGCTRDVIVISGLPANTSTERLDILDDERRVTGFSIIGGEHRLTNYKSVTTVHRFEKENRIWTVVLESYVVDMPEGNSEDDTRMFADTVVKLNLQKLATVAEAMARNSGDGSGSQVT
T1 sequence (Q9CAJ0 180-511 partner limits assumed): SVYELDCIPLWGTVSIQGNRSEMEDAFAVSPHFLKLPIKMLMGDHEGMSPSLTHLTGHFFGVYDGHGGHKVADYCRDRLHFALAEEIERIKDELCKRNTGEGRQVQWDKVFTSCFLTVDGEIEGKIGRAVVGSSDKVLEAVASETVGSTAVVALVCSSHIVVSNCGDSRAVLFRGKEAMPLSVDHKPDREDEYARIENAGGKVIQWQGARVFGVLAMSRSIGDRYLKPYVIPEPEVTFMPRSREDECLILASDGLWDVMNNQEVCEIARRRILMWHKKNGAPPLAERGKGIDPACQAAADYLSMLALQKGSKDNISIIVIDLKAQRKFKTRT
Put plainly: receptor-mediated PP2C inhibition assay, fluorescence based, PYR1. Format: biochemical. As for the experimental part:
(§1) Each ligand was tested at concentrations spanning 7 points between 4 nM and 50 μM in triplicate in a reaction buffer containing 100 mM Tris-HCl-pH7.9, 100 mM NaCl, 30 μg/ml BSA, 0.1% 2-mercaptoethanol, 25 nM ΔN-HAB1, 1 mM 4-methylumbelliferyl phosphate, and different recombinant ABA receptors at 50 nM or 300 nM (for PYL9 or PYL11). The substrate was added ˜20 minutes after the other components had been mixed and fluorescence data collected. Control carrier solvent-only wells were included as a reference and %-activity for tested compounds calculated relative to this control. The dose response data (PP2C activity versus agonist concentration) was fit to a log (inhibitor) vs. response-(variable slope) model using non-linear regression to infer the IC50S, using GraphPad Prism 6.0, to yield the IC50 values shown in FIG. 6.
The potency and selectivity of ligands 2b, 2e-f was established by testing their ability to activate multiple ABA receptor subtypes using the fluorescence based phosphasted assay as outlined in example 2 at a range of concentrations (4 nM to 50 μM). […]
We first explored if replacing the cyclopropyl group with an isopropyl group affects the activity of the ligand against PYR1. Ligands were tested using the fluorescence based PP2C assay described in example 2.

The subject of assay [4] is Arabidopsis pMAPKKK18-Luc+ reporter strain seedlings. Put plainly: ABA reporter gene luminescence assay. The assay is classed as in vivo. The note with it: 25 μM, 6-hours post-treatment. The protocol:
Liquid grown Arabidopsis […]18-Luc+ reporter strain seedlings were treated with 25 μM test compounds or a mock control and 100 μM luciferin. Luminescence images were captured 6-hours post-treatment.
(In general: Reporter assays use an easily measured gene product as a stand-in for the process of interest.)

The test system of assay [5] is panel of recombinant ABA receptors; PP2C HAB1. As to the kind of experiment: receptor-mediated PP2C inhibition assay, dose response, umbelliferone substrate. The assay is classed as biochemical, Arabidopsis. The protocol: as §1
The potency and selectivity of ligands 2b, 2e-f was established by testing their ability to activate multiple ABA receptor subtypes using the fluorescence based phosphasted assay as outlined in example 2 at a range of concentrations (4 nM to 50 μM). In addition, we compared ligand potency to ABA, quinabactin and a recently described fluorinated quinabactin analog AMF4, which is reported to have improved potency in comparison toe quinabactin. To conduct the assays purified recombinant receptors were tested at 50 nM or, in the a cases of PYL9 and PYL11, 300 nM and 25 nM ΔN-HAB1. The PP2C-activity dose response data obtained was fit to a log (inhibitor) vs response-(variable slope) model using non-linear regression to infer the IC50S, using GraphPad Prism 6.0, to yield IC50 values as shown in FIG. 12A. […] Moreover, the installation of a single cyclopropyl group ortho to the nitrile (analog 2e) provided a further boost in potency, dramatically so for all subfamily III receptors, PYL4 and PYL11. […] Furthermore, the installation of a second cyclopropyl substituent (analog 2f) provides an even further boot in activity on subfamily III receptors, which comes at the expense of reduced potency on subfamily I receptors. […] 2f is therefore an unusually overpowered ABA receptor agonist, which we refer to as opabactin (Opa).

“Also recorded” adds a separate entry of the source.

Consider `N#Cc1c(C2CC2)cc(CC(=O)NC2(C(=O)O)CCCCC2)cc1C1CC1` [2f, 1-[2-(4-cyano-3,5-dicyclopropylphenyl)acetamido]cyclohexane-1-carboxylic acid], for which the test concentration (twice the EC50 for germination inhibition) in assay [1] (Arabidopsis thaliana, printed value is twice the EC50, used as test concentration on mutants, read-out: twice the concentrations determined as its EC50 (inhibition of germination) (converted)) was 60 nM. In assay [1] (in vivo), the “fold more active than either QB or AMF4 in seed germination inhibition” value was above 10 x and the “inhibition of Arabidopsis seed germination (in words)” value is given as “potently inhibits seed germination”. Further, in assay [2], the “effects on transpiration (leaf temperature)” value is “ABA-like effects on transpiration”. In assay [3], the “increased potency on PYR1 relative to ABA” value is around 10 ×. In assay [4], the “induction of ABA-transcriptional responses (luminescence)” value is “effective inducer of ABA-transcriptional responses”. In addition, in assay [5] (4 nM to 50 μM dose response), the “potency in receptor-mediated PP2C inhibition (in words)” value was “most potent subfamily III agonist reported to date; also recorded: greatly more active than quinabactin and AMF4 on subfamily III receptors”. Also, the “improved potency relative to ABA” value in assay [5] (subfamily IIIA receptors) is above 10 x.
